{
  "source": "patent US12668571B2",
  "about": "“Substituted 3-amino-4-methylbenzenesulfonamides as small molecule inhibitors of ubiquitin-specific protease 28” (Dana-Farber Cancer Institute, Inc., priority 2020, dated 2026)",
  "note": "pIC50: −log10 of the molar value.",
  "data": [
    {"target": "T1, USP28 (Homo sapiens, UniProt Q96RU2)", "T1 sequence (Q96RU2 1-1077)": "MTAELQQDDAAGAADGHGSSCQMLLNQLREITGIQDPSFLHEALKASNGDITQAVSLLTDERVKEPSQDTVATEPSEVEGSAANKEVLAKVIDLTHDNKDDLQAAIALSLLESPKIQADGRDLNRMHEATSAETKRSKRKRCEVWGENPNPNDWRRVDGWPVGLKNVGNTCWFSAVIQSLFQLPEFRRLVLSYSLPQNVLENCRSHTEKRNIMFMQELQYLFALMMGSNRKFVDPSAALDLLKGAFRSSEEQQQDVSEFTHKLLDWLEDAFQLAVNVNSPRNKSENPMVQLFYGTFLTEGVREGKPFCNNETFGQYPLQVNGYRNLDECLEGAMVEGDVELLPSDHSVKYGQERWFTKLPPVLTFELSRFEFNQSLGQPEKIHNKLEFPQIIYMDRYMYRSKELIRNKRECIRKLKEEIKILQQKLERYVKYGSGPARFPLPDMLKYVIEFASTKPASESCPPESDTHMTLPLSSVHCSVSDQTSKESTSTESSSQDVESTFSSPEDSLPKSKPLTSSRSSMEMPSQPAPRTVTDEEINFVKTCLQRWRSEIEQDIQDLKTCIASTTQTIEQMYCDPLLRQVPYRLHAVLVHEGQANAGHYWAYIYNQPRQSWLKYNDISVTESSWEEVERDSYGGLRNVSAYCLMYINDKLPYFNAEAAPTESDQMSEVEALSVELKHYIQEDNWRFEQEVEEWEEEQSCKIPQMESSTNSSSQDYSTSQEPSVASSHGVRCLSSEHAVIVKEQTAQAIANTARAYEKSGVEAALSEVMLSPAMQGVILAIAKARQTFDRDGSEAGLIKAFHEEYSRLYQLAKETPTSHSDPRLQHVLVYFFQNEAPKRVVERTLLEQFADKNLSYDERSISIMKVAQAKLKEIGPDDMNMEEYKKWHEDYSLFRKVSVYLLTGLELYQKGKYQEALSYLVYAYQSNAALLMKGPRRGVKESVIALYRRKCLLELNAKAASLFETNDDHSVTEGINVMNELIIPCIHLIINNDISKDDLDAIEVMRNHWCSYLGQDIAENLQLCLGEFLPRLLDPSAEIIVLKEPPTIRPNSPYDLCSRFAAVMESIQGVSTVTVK", "test": "Competitive activity-based protein profiling (target engagement, Ub-VME probe, Western blot)", "format": "binding", "conditions": "K562 cells lysed, treated with compound for 1 h, then incubated with Ub-VME", "method": "K562 cells were lysed and treated with indicated concentrations of compound 1 for 1 h followed by incubation with Ub-VME. Ub-VME covalently modifies USP28, resulting in higher MW band observed by Western blot.\nCells were pelleted, washed with PBS buffer, lysed on ice (20 mM Tris pH 8, 150 mM NaCl, 1% NP-40, 10% glycerol, 1 mM TCEP, phosphatase inhibitor cocktails (Sigma P5726 and Calbiochem 524624), and protease inhibitors (pepstatin, leupeptin, PMSF, and aprotinin), and clarified by centrifugation. Protein content was quantified by BCA and diluted to 2 mg/mL in lysis buffer. Compounds were added at desired concentrations and incubated at room temperature for […]. Samples were then supplemented with 2 uM […] and incubated at room temperature with shaking for 15 minutes. Reactions were quenched with 4×LDS sample buffer (Thermo Fisher B0007) supplemented with 10% BME, vortexed vigorously, and heated to 95° C. for 5 minutes. Samples were resolved by SDS-PAGE and analyzed by Western blot with the indicated antibodies.", "values": [
      {"smiles": "Cc1ccc(S(=O)(=O)N(C)C)cc1NC(=O)Cc1ccc(Cl)c(Cl)c1", "note": "[Compound 1]", "labeling of USP28 by covalent Ub-VME probe (Western blot, FIG. 2)": "prevents labeling of USP28 by the covalent Ub-VME probe"}
    ]},
    {"target": "T1, USP28", "test": "Ubiquitin-Rhodamine110 assay", "format": "biochemical", "conditions": "USP28 at 1 nM, 30 minutes pre-incubation at room temperature, Ubiquitin-Rho110 substrate 125 nM", "method": "USP28 (at 1 nM) was pre-incubated with different concentrations of inhibitors or DMSO as a control in 50 mM Tris pH 8, 50 mM NaCl, 0.002% Tween-20, 5 mM DTT. Compounds and protein were incubated for 30 minutes at room temperature prior to the addition of Ubiquitin-Rho110 (Boston Biochem) substrate for a final concentration of 125 nM. The initial rate of the reaction was measured by collecting fluorescence data at one-minute interval over 30-minute period using a Clariostar® fluorescence plate reader at excitation and emission wavelength of 485 nm and 535 nm, respectively. The calculated initial rate values were plotted against inhibitor concentrations to determine IC50s. All the experimental data were plotted using GraphPad Prism®.", "values": [
      {"smiles": "Cc1ccc(S(=O)(=O)N(C)C)cc1NC(=O)Cc1ccc(Cl)c(Cl)c1", "note": "[Compound 1]", "pIC50": "> 6.00"},
      {"smiles": "Cc1ccc(S(=O)(=O)N(C)C)cc1NC(=O)Cc1ccccc1", "note": "[Compound 2]", "pIC50": "5.00 to 6.00"},
      {"smiles": "Cc1ccc(S(=O)(=O)N(C)C)cc1NC(=O)Cc1cccc(C(F)(F)F)c1", "note": "[Compound 3]", "pIC50": "5.00 to 6.00"},
      {"smiles": "Cc1ccc(S(=O)(=O)N(C)C)cc1NC(=O)Cc1ccc([N+](=O)[O-])cc1", "note": "[Compound 4]", "pIC50": "4.00 to 5.00"},
      {"smiles": "Cc1ccc(S(=O)(=O)N(C)C)cc1NC(=O)Cc1ccc(O)cc1", "note": "[Compound 5]", "pIC50": "< 4.00"},
      {"smiles": "CS(=O)(=O)c1cccc(NC(=O)Cc2ccc(Cl)c(Cl)c2)c1", "note": "[Compound 6]", "pIC50": "4.00 to 5.00"},
      {"smiles": "Cc1ccc(S(=O)(=O)N(C)C)cc1NC(=O)CCc1ccccc1", "note": "[Compound 7]", "pIC50": "< 4.00"},
      {"smiles": "CCN(CC)S(=O)(=O)c1cccc(NC(=O)Cc2ccc(Cl)c(Cl)c2)c1", "note": "[Compound 8]", "pIC50": "5.00 to 6.00"},
      {"smiles": "Cc1ccc(S(=O)(=O)N(C)C)cc1NC(=O)Cc1ccc(-c2ccccc2)cc1", "note": "[Compound 9]", "pIC50": "< 4.00"},
      {"smiles": "Cc1ccc(S(=O)(=O)N(C)C)cc1NC(=O)CN1CCN(C)CC1", "note": "[Compound 10]", "pIC50": "5.00 to 6.00"},
      {"smiles": "Cc1ccc(S(=O)(=O)N2CCCCC2)cc1NC(=O)Cc1ccc(Cl)c(Cl)c1", "note": "[Compound 11]", "pIC50": "> 6.00"},
      {"smiles": "Cc1ccc(S(=O)(=O)Nc2ccccc2)cc1NC(=O)Cc1ccc(Cl)c(Cl)c1", "note": "[Compound 12]", "pIC50": "> 6.00"},
      {"smiles": "CN(C)S(=O)(=O)c1cccc(NC(=O)Cc2ccc(Cl)c(Cl)c2)c1", "note": "[Compound 13]", "pIC50": "4.00 to 5.00"},
      {"smiles": "Cc1ccc(S(=O)(=O)NCc2ccccc2)cc1NC(=O)Cc1ccc(Cl)c(Cl)c1", "note": "[Compound 14]", "pIC50": "> 6.00"},
      {"smiles": "Cc1ccc(S(=O)(=O)Nc2ccc(N3CCN(C)CC3)cc2)cc1NC(=O)Cc1ccc(Cl)c(Cl)c1", "note": "[Compound 15]", "pIC50": "> 6.00"},
      {"smiles": "CN(C)S(=O)(=O)c1ccc(Cl)c(NC(=O)Cc2ccc(Cl)c(Cl)c2)c1", "note": "[Compound 16]", "pIC50": "> 6.00"},
      {"smiles": "CCc1ccc(S(=O)(=O)N(C)C)cc1NC(=O)Cc1ccc(Cl)c(Cl)c1", "note": "[Compound 17]", "pIC50": "5.00 to 6.00"},
      {"smiles": "CN(C)S(=O)(=O)c1ccc(OC(F)(F)F)c(NC(=O)Cc2ccc(Cl)c(Cl)c2)c1", "note": "[Compound 18]", "pIC50": "4.00 to 5.00"},
      {"smiles": "CN(C)S(=O)(=O)c1ccc(NCc2ccccc2)c(NC(=O)Cc2ccc(Cl)c(Cl)c2)c1", "note": "[Compound 19]", "pIC50": "< 4.00"},
      {"smiles": "Cc1ccc(S(=O)(=O)N(C)C)cc1C(=O)NCc1cccc(Cl)c1", "note": "[Compound 20]", "pIC50": "> 6.00"},
      {"smiles": "Cc1ccc(S(=O)(=O)N(C)C)cc1C(=O)NCc1ccc(Cl)c(Cl)c1", "note": "[Compound 21]", "pIC50": "> 6.00"},
      {"smiles": "Cc1ccc(C(=O)NCc2ccccc2)cc1NC(=O)Cc1ccc(Cl)c(Cl)c1", "note": "[Compound 22]", "pIC50": "5.00 to 6.00"},
      {"smiles": "Cc1ccc(S(=O)(=O)Nc2ccccc2)cc1NC(=O)Cc1ccc2ccccc2c1", "note": "[Compound 23]", "pIC50": "> 6.00"},
      {"smiles": "Cc1ccc(S(=O)(=O)NCc2ccccc2)cc1NC(=O)c1ccc(Cl)c(Cl)c1", "note": "[Compound 24]", "pIC50": "> 6.00"},
      {"smiles": "CN(C)S(=O)(=O)c1ccc2[nH]c(Cc3ccc(Cl)c(Cl)c3)nc2c1", "note": "[Compound 27]", "pIC50": "< 4.00"},
      {"smiles": "Cc1ccc(S(=O)(=O)Nc2ccc(-n3ccnc3)cc2)cc1NC(=O)Cc1ccc(Cl)c(Cl)c1", "note": "[Compound 29]", "pIC50": "5.00 to 6.00"}
    ]}
  ]
}
